Test results from ChEMBL document CHEMBL4619705, “Conjugation of peptides to short-acyl-chain ceramides for delivery across mucosal cell barriers” (Bioorg Med Chem Lett, 2020).

Test: Drug transport in MDCK2 cells assessed as transcytosis across epithelial monolayers at 37 degree C measured after 3 hrs by transwell assay
Assay type: ADME, cell-based, Canis lupus familiaris
Settings: dog, mdck-ii
For `CCCCCCCCCCCCC/C=C\[C@@H](O)[C@H](/C=N\OCC(=O)NCCCC[C@@H](NC(=O)CNC(=O)[C@@H](CO)NC(=O)CNC(=O)[C@@H](CCCNC(=N)N)NC(=O)CNC(=O)[C@@H](Cc1ccc(O)cc1)NC(=O)CNC(=O)[C@@H](CO)NC(=O)CNC(=O)[C@@H](CCCCNC(=O)CCCC[C@@H]1SC[C@@H]2NC(=O)N[C@@H]21)NC(=O)[C@H](N)Cc1cn(CCCCCCNC(=O)c2ccc(-c3c4ccc(=N)c(S(=O)(=O)O)c-4oc4c(S(=O)(=O)O)c(N)ccc34)c(C(=O)O)c2)nn1)C(N)=O)NC(=O)CCCCC`, the Drug transport was 11.4%. With `N=C(N)NCCC[C@@H](NC(=O)CNC(=O)[C@@H](Cc1ccc(O)cc1)NC(=O)CNC(=O)[C@@H](CO)NC(=O)CNC(=O)[C@@H](CCCCNC(=O)CCCC[C@@H]1SC[C@@H]2NC(=O)N[C@@H]21)NC(=O)[C@H](N)Cc1cn(CCCCCCNC(=O)c2ccc(-c3c4ccc(=N)c(S(=O)(=O)O)c-4oc4c(S(=O)(=O)O)c(N)ccc34)c(C(=O)O)c2)nn1)C(=O)NCC(=O)N[C@H](CO)C(=O)NCC(=O)N[C@H](CCCCNC(=O)CON)C(N)=O` the Drug transport was 0.2%. With `CCCCCCCCCCCCCC=CC=C(C=NOCC(=O)NCCCC[C@@H](NC(=O)CNC(=O)[C@@H](CO)NC(=O)CNC(=O)[C@@H](CCCNC(=N)N)NC(=O)CNC(=O)[C@@H](Cc1ccc(O)cc1)NC(=O)CNC(=O)[C@@H](CO)NC(=O)CNC(=O)[C@@H](CCCCNC(=O)CCCC[C@@H]1SC[C@@H]2NC(=O)N[C@@H]21)NC(=O)[C@H](N)Cc1cn(CCCCCCNC(=O)c2ccc(-c3c4ccc(=N)c(S(=O)(=O)O)c-4oc4c(S(=O)(=O)O)c(N)ccc34)c(C(=O)O)c2)nn1)C(N)=O)NC(=O)CCCCC` the Drug transport was 5.8%.
